In patent publication US6063782A, “Pyrrolopyridazine derivatives” (Sankyo Company, Limited, priority 1994, dated 2000):

What was measured:
[1] = tested on: Helicobacter pylori strains 9470, 9472 and 9474; assay: Antibacterial activity against Helicobacter pylori; assay type: cell-based; details: strains 9470, 9472 and 9474, 37° C., 3 days, slightly aerobic; result given in words only
Experimental: Antibacterial activity against Helicobacter pylori The antibacterial activity of the compounds of the present invention were evaluated by measuring the minimum inhibitory concentration values (MIC) of the present compounds against Helicobacter pylori strains 9470, 9472 and 9474. These strains of Helicobacter pylori were incubated for 4 days on a plate medium. The medium was prepared by dissolving brain heart infusion agar (Product of DIFCO) in a defined amount of distilled water, by sterilization in an autoclave, injecting horse blood (Product of Nihon Seibutsu Zairyo Co.) into each plate for the medium to contain 7% of the blood and by solidifying. Under slightly aerobic conditions, Helicobacter pylori cultivated at 37° C. for 4 days was suspended in a physiological saline solution for its inocular size to be about 10^8 CFU/ml. The suspension was diluted 100 times, and about 10 μl of the diluted suspension was inoculated on a medium for MIC determination. The medium for MIC determination used had the same compounds as those for preculture. […] In a similar way to the preculture, Helicobacter pylori was cultivated at 37° C. for 3 days under slightly aerobic conditions. […] The minimum concentration which gave no bacterial growth was regarded as MIC of the compound of the present invention.

[2] = tested on: gastric acid secretion; assay: Gastric acid secretion activity test using pyloric ligation in rats (Shay rat method); assay type: in vivo; details: male SD rats, 20 mg/kg injected into the duodenal region, 4 hours, result given in words only
Experimental: Gastric acid secretion activity test using pyloric ligation in rats (Shay rat method)
Pyloric ligation was conducted based on the method of Shay et al. [Gastroenterology, 5, 43 (1945)]. Male rats of SD strain were fasted for 24 hours; their abdomens were sectioned during anesthesia under ether. The duodenal and pyloric regions were exposed and the latter was ligated. A solution of a test compound (10 mg/ml) prepared by use of 1.5w parts of dimethylacetamide, 68.5% parts of polyethyleneglycol (PEG-400) and 30% parts of physiological saline solution, was injected into the duodenal region for the dose to be 20 mg/kg by use of a 1-ml syringe and an injection needle (26G). After injection of the test compound, the abdominal region was sutured. The animals were allowed to a stand for 4 hours without feeding food and water and then sacrified with carbon dioxide gas. The stomach was excised and gastric juice was gathered. The gastric juice sample was centrifuged (4° C., 2500 rpm, 15 minutes). The amount of the supernatant was measured to be as the gastric secretion. The acidity of the gastric juice was determined by the amount (ml) of 0.01 N sodium hydroxide solution required for titration of 0.1 ml of the supernatant to pH 7.0 by use of-an auto-titrating apparatus. The value of gastric acid secretion was calculated from the value of gastric secretion and the acidity of gastric juice. The inhibiting rate was obtained from the values of gastric acid secretion of the control group and of the administered group.

[3] = biological target: proton.potassium-adenosine triphosphatase (H+.K+-ATPase) (Sus scrofa, UniProt P19156); assay: Proton.potassium-adenosine triphosphatase (H+.K+-ATPase) inhibition test; assay type: biochemical; details: microsomal fraction of porcine gastric mucosa, pH=6.85, 37° C.; result given in words only
Chain of proton.potassium-adenosine triphosphatase (H+.K+-ATPase) (P19156 whole entry): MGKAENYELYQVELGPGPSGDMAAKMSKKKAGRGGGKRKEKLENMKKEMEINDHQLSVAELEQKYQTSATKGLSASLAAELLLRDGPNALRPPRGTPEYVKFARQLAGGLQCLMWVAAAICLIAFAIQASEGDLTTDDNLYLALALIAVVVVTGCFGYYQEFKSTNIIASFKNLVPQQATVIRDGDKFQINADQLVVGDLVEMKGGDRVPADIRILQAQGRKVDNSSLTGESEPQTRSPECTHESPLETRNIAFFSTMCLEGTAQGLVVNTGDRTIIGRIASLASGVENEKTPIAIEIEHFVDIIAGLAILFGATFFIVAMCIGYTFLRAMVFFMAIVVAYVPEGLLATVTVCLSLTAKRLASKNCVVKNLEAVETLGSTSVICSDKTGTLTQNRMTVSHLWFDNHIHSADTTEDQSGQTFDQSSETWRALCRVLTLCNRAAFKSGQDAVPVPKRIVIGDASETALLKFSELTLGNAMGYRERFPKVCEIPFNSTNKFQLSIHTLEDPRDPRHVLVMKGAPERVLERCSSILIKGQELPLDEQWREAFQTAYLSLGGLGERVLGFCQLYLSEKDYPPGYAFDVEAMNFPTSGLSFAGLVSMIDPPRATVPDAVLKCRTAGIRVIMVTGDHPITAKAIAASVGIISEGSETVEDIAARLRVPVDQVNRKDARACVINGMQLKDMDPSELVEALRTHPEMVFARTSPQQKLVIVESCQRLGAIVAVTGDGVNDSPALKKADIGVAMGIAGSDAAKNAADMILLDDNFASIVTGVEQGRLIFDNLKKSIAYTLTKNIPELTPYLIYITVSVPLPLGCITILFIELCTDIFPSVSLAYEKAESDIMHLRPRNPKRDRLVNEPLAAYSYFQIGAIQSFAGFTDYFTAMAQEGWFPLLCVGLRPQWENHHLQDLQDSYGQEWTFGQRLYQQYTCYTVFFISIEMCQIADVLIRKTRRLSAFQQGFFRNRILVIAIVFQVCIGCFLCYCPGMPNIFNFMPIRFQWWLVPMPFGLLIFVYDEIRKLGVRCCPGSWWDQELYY
Chain of proton.potassium-adenosine triphosphatase (H+.K+-ATPase) (P18434 whole entry partner): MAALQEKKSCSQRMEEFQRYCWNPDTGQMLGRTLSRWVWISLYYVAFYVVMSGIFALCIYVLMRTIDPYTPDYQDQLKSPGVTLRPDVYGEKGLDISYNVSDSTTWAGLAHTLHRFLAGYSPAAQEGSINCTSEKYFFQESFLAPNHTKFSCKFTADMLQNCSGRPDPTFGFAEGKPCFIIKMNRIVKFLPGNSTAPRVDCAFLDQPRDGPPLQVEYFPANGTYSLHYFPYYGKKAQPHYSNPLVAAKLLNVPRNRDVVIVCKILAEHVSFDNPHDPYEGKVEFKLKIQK
Experimental: Proton.potassium-adenosine triphosphatase (H^+.K^+ -ATPase) activation test
According to the method reported by Sachs et al. [J. Biol. Chem., 251, 7690 (1976)], a microsomal fraction obtained from homogenized fresh porcine gastric mucosa by density gradient ultracentrifugation was used as the proton.potassium-adenosine triphosphatase preparation, 10 μl of a solution of a test compound in dimethylsulfoxide were added to 0.75 ml of 70 mM tris-HCl buffer solution (magnesium chloride 5 mM, potassium chloride 20 mM and pH=6.85) containing from 30 to 80 μg/ml (in terms of protein concentration) of the enzyme preparation and the mixture was incubated for 45 minutes at 37° C. with shaking at 200 times per minute. The enzyme reaction was initiated by adding 0.25 ml of 8 mM disodium adenosine triphosphate solution. After 20 minutes of the reaction time, the reaction was stopped by adding 1 ml of a 10k trichloroacetic acid-active carbon (100 mg) solution. The reaction solution was centrifuged (4° C., 3000 rpm, 15 minutes) and the inorganic phosphate in the supernatant prepared from adenosine triphosphate by hydrolysis was measured by colorimetry, according to the method of Yoda and Hokin [Biochem. Biophys. Res. Commun., 40, 880 (1970)]. In a similar manner, the amount of inorganic phosphate was measured in a reaction solution in the absence of potassium chloride. From the difference between the phosphate amounts in the presence and absence of potassium chloride, the proton-potassium-adenosine triphosphatase activity was calculated. Based on the activity value in the control and the values in the test compound at the various concentrations tested, the inhibiting rates (%) and then the 50? inhibiting concentrations (IC50) to proton.potassium-adenosine triphosphatase activity were obtained.

Structure (SMILES): CC=CCn1c(C)c(C)c2cnnc(OCc3ccc(F)cc3F)c21 [Example 22, 1-(2-Butenyl)-7-(2,4-difluorobenzyloxy)-2,3-dimethylpyrrolo[2,3-d]pyridazine]
- minimum inhibitory concentration (MIC) against Helicobacter pylori [1]: excellent antibacterial activity
- inhibiting rate of gastric acid secretion [2]: excellent activity
- inhibiting concentrations (IC50) to proton.potassium-adenosine triphosphatase activity [3]: excellent activity

Structure (SMILES): C/C=C/n1c(C)c(C)c2cnnc(OCc3ccc(F)cc3)c21 [Example 44, 7-(4-Fluorobenzyloxy)-2,3-dimethyl-1-(1-propenyl)-pyrrolo[2,3-d]pyridazine]
- minimum inhibitory concentration (MIC) against Helicobacter pylori [1]: excellent antibacterial activity
- inhibiting rate of gastric acid secretion [2]: excellent activity
- inhibiting concentrations (IC50) to proton.potassium-adenosine triphosphatase activity [3]: excellent activity

Structure (SMILES): CC=CCn1c(C)c(C)c2cnnc(OCc3ccc(Cl)cc3F)c21 [Example 48, 1-(2-Butenyl)-7-(4-chloro-2-fluorobenzyloxy)-2,3-dimethylpyrrolo[2,3-d]pyridazine]
- minimum inhibitory concentration (MIC) against Helicobacter pylori [1]: excellent antibacterial activity
- inhibiting rate of gastric acid secretion [2]: excellent activity
- inhibiting concentrations (IC50) to proton.potassium-adenosine triphosphatase activity [3]: excellent activity
